Experimental data published in patent publication US6436310B1, “Deicing solution” (Sears Petroleum & Transport Corporation, priority 1998, dated 2002).
Like-named read-outs stand apart in the source and are kept apart here.

Columns and labels:
[1] = SHRP H-205.2 Test Method for Ice Melting of Liquid Deicing Chemicals; conditions: 25° F. (−4° C.)
Protocol: Fraction E was also examined for ice melting characteristics at 25° F.

[2] = Freezing point of simple carbohydrates with 15% magnesium chloride; assay type: physicochemical; conditions: 15% MgCl2
Protocol: There is available commercially a wide range of carbohydrates with varying carbohydrate compositions. An evaluation was conducted using simple sugars, disaccharides and polysaccharides in an attempt to determine the effect of molecular weight and solute concentration upon freezing point.

Rats = conditions: cited from earlier work
[3] = calculated from data in SHRP H-205.2; cited from earlier work
[4] = aqueous solution

| Compound | Oral LD 50 (Rats) (Rats) [mg/kg] | Lbs weight ice melted per lb weight of inorganic salt [3] [Lbs per lb] | further results |
| --- | --- | --- | --- |
| [Cl-].[Cl-].[Mg+2] [Mg Cl2, magnesium chloride] |  |  | Lbs weight ice melted per lb weight of inorganic salt [1]: 16.9 Lbs per lb |
| OC[C@H]1O[C@@H](O[C@H]2[C@H](O)[C@@H](O)C(O)O[C@@H]2CO)[C@H](O)[C@@H](O)[C@H]1O (some centres unmarked) [Lactose] |  |  | comparison in reducing freezing point [2]: somewhat better than maltose |
| [Cl-].[Na+] [Sodium Chloride, sodium chloride] | 3000 | 7.5 |  |
| [Ca+2].[Cl-].[Cl-] [Ca Cl2, calcium chloride] |  | 7.3 |  |
| CC(=O)[O-].[K+] [Potassium acetate, potassium acetate] | 3250 |  |  |
| CC(=O)[O-].[Na+] [Sodium acetate, sodium acetate] | 3550 |  | solids content at the eutectic point [4]: 23% |
